≈ marks a conversion by molar mass, not a printed value. Entries after “also recorded” stand apart in the source; their conditions may differ. Where two headings read alike, the source gives them in different places.
Tests used:
[1] = test system: adenosine receptors in RAW264.7 cells; assay: cAMP accumulation in RAW264.7 macrophages (cAMP ELISA); type: cell-based, murine; details: for increase in cAMP compared with forskolin: 1 μM, 10 min incubation, PDE inhibitor pre-treatment, positive control forskolin 1 μM
[2] = Equilibrium solubility, modified shake-flask method with HPLC quantification; type: physicochemical; details: shake-flask 24 h, HPLC 230 nm
Method: The equilibrium solubility of ADN‐PEG‐conjugates was determined using a modified version of the shake‐flask method (Plöger et al., [2018]). An excess of the ADN‐PEG‐conjugate was added to either phosphate buffer solution (PBS buffer) or deuterium‐depleted water (DDW) at a pH value of 6.8. The resulting suspension was shaken at 37°C until a (thermodynamic) equilibrium was reached between saturated solution and undissolved solid. Solubility quantification of the samples was achieved using high‐pressure liquid chromatography (HPLC) analysis.
An excess amount of the PEG-ADN conjugates was added into a 20 mL glass vial containing either phosphate buffer solution or DDW. The samples were placed into a shaking water bath at 150 rpm at 37ᵒC for 24h. The supernatant was withdrawn from the suspension using a micro centaur MSB010.CX2.5 centrifuge (MSE Ltd., London, UK) at 1.3 × 10,000 rpm for 1 min.

[3] = test system: Mycobacterium bovis BCG (ATCC35734); assay: microbe, parasite or virus in culture; type: cell-based; details: Mycobacterium tuberculosis variant bovis BCG, read-out: MIC90 M. bovis BCG, HT-SPOTi; lowest concentration inhibiting 90% of the bacteria
[4] = test system: Mycobacterium aurum (ATCC 23366); assay: HT-SPOTi anti-mycobacterial assay, M. aurum; type: cell-based; details: Mycolicibacterium aurum
[5] = test system: murine macrophages RAW 264.7; assay: Resazurin cytotoxicity assay on RAW 264.7 macrophages; type: cell-based; details: Mus musculus
[6] = test system: Mycobacterium aurum (ATCC 23366); parameters: method as in Ferguson et al., [2020]; details: ref Ferguson et al., [2020]; cited from earlier work
[7] = test system: Mycobacterium bovis BCG (ATCC35734); details: ref Ferguson et al., [2020]; cited from earlier work
[8] = test system: Mycobacterium tuberculosis in a persistent state; parameters: method as in Barrow et al., [2003]; details: ref Barrow et al., [2003]; cited from earlier work
[9] = aqueous buffer, thermodynamic from solid, phosphate buffer solution pH 6.8, 37°C, read-out: Solubility (mean ± SD) PBS
[10] = pH 7, thermodynamic from solid, deuterium-depleted water (DDW), 37°C, read-out: Solubility (mean ± SD) DDW
[11] = ATCC23366, HT-SPOTi, lowest concentration inhibiting 90% of the bacteria, read-out: MIC90 M. aurum
[12] = RAW264.7, 50% inhibition of cell proliferation, resazurin micro dilution method, RAW 264.7 murine macrophages, read-out: GIC50 RAW 264.7

CC1(C)O[C@@H]2[C@H](O1)[C@@H](CO)O[C@H]2n1cnc2c(N)nc(C#CCOCCOCCOCCOCCOS(C)(=O)=O)nc21 [11b]
cAMP accumulation in RAW264.7 cells (in words) [1]: significant increase; also recorded: considerable increase
increase in cAMP compared with forskolin [1]: 46%
solubility at 24 h [2, 9]: 1180 ± 190 µg/mL (≈ 1920 µM)
solubility at 24 h [2, 10]: 1160 ± 640 µg/mL (≈ 1880 µM)
MIC90 [3]: 500 µg/mL (≈ 812 µM)
MIC90 [4, 11]: 500 µg/mL (≈ 812 µM)
IC50 [5, 12]: 62.5 µg/mL (≈ 102 µM)

Nc1nc(I)nc2c1ncn2[C@@H]1O[C@H](CO)[C@@H](O)[C@H]1O [compound 9, 2‐iodoadenosine, reference compound]
bactericidal activity against M. aurum (in words) [6]: not
MIC90 [3]: 15.6 µg/mL (≈ 39.7 µM)
MIC90 ([4]; ATCC23366, read-out: MIC90 M. aurum): 125 µg/mL (≈ 318 µM)
bactericidal activity against M. bovis (in words) [7]: exhibited bactericidal activity
IC50 ([5]; RAW264.7, read-out: GIC50 RAW 264.7): 250 µg/mL (≈ 636 µM)

CC1(C)O[C@@H]2[C@H](O1)[C@@H](COS(N)(=O)=O)O[C@H]2n1cnc2c(N)nc(C#CCOCCOCCOCCOCCOCCOS(C)(=O)=O)nc21 [12c]
MIC90 [3]: 500 µg/mL (≈ 677 µM)
MIC90 [4, 11]: 62.5 µg/mL (≈ 84.6 µM)
IC50 [5, 12]: 31.2 µg/mL (≈ 42.2 µM)

CC1(C)O[C@@H]2[C@H](O1)[C@@H](CO)O[C@H]2n1cnc2c(N)nc(C#CCOCCOCCOCCOCCOCCOS(C)(=O)=O)nc21 [11c]
MIC90 [3]: 250 µg/mL (≈ 379 µM)
MIC90 [4, 11]: 125 µg/mL (≈ 189 µM)
IC50 [5, 12]: 62.5 µg/mL (≈ 94.7 µM)

CS(=O)(=O)OCCOCCOCCOCCOCC#Cc1nc(N)c2ncn([C@@H]3O[C@H](CO)[C@@H](O)[C@H]3O)c2n1 [10b]
cAMP accumulation in RAW264.7 cells (in words) [1]: significant increase; also recorded: considerable increase
increase in cAMP compared with forskolin [1]: 42%
solubility at 24 h [2, 9]: 1220 ± 260 µg/mL (≈ 2120 µM)
solubility at 24 h [2, 10]: 1330 ± 320 µg/mL (≈ 2310 µM)
MIC90 [3]: 250 µg/mL (≈ 434 µM)
MIC90 [4, 11]: 250 µg/mL (≈ 434 µM)
IC50 [5, 12]: 250 µg/mL (≈ 434 µM)

Cc1nc(N)c2ncn([C@@H]3O[C@H](CO)[C@@H](O)[C@H]3O)c2n1 [2‐methyl adenosine]
growth of Mycobacterium tuberculosis in a persistent state (in words) [8]: inhibited the growth

Nc1ncnc2c1ncn2[C@@H]1O[C@H](CO)[C@@H](O)[C@H]1O [Adenosine, adenosine, reference compound]
increase in cAMP compared with forskolin [1]: 48%

NNC(=O)c1ccncc1 [Isoniazid, isoniazid, reference compound]
MIC90 [3]: 0.49 µg/mL (≈ 3.57 µM)
MIC90 [4, 11]: 7.81 µg/mL (≈ 56.9 µM)
IC50 [5, 12]: 500 µg/mL (≈ 3650 µM)

CS(=O)(=O)OCCOCCOCCOCCOCCOCC#Cc1nc(N)c2ncn([C@@H]3O[C@H](CO)[C@@H](O)[C@H]3O)c2n1 [10c]
MIC90 [3]: 250 µg/mL (≈ 403 µM)
MIC90 [4, 11]: 250 µg/mL (≈ 403 µM)
IC50 [5, 12]: 250 µg/mL (≈ 403 µM)
